One test has as its system HCT116 cells. Description: cells. The conditions noted are these: Homo sapiens, HCT-116, 72 h, read-out: Test Example 3 HCT116 GI50.
Test [1] has as its system PTDSS2 gene-disrupted (PTDSS2-KO) HCT116 cells. Description: cells. The conditions noted are these: Homo sapiens, HCT-116, 72 h, read-out: Test Example 3 PTDSS2-KO HCT116 GI50.
Experimental: McCoy's 5A medium containing 10% bovine serum was used as the culture medium for each cell. […] They were added to each well of 384-well plates at 40 nL/well using an Echo555 (Labcyte Inc.). […] On the day of compound addition (day 0) and 3 days after compound addition (day 3), 10 μL/well of CellTiter-Glo® 2.0 Assay (Promega, #G9242), which is a reagent for ATP measurement, was added to each well, and the amount of luminescence in each well was measured with EnVision. From the amount of luminescence on the day of compound addition (C0) and the amount of luminescence of the compound non-addition group (C3) and compound addition group (T3) after 3 days of culture, cell viability was calculated based on the following formula. Cell viability (%)=[(T3−C0)/(C3−C0)]×100
A further test has as its target PSS1 (Homo sapiens, UniProt P48651). The test is described as follows: biochemical.
Test [2] concerns PTDSS2-KO HCT116 cell-subcutaneous transplanted model. The test is described as follows: Test Example 4: Antitumor activity on PTDSS2-KO HCT116 cell-subcutaneous transplanted model. It counts as in vivo, female BALB/c-nu/nu mice. The conditions noted are these: oral. The source says: HCT116 cell-subcutaneous transplanted model PTDSS2-KO HCT116 cells were transplanted to a right subcutaneous axillary portion of female BALB/c-nu/nu mice at a proportion of 1×10^7 cells/head, and when the tumor volume reached 100 to 300 mm^3 (estimated tumor volume (major axis×minor axis×minor axis/2)), mice were divided into groups of 6 or 5 mice each such that there was no difference between groups. The female BALB/c-nu/nu mice were purchased from CHARLES RIVER LABORATORIES JAPAN, INC. The compounds of Examples 58, 57, 53, 30, 42, 32, 34, 33, and 31 were orally administered from the day of grouping in the dosing schedule shown in Table 12 (twice daily, 11 successive days (BID×11), or once daily, 13 successive days (QD×13)). The tumor volume was measured until the next day of completion of the administration (test end date). 0.5% methylcellulose (MC) was administered to the vehicle control group as the vehicle.
TGI %=(1−TVt/TVc)×100 • TGI: Tumor growth suppression rate • TVt: Group mean tumor volume of compound administration group on test end date • TVc: Group mean tumor volume of vehicle control group on test end date

The subject of the next test is NCI-N87 cells. The test is described as follows: Test Example 5: Cell growth suppression activity 2 (NCI-N87). The class given is cell-based. The conditions noted are these: 168 h; NCI-N87 cells derived from human stomach cancer, 7 days of culture, ATP measurement (CellTiter-Glo 2.0). The protocol:
NCI-N87 derived from human stomach cancer was used. […] NCI-N87 cells were purchased from ATCC. NCI-N87 cells were seeded into 96 well plates at 5,000 cells/50 μL/well (day −1). The compound of Example 42 was serially diluted and prepared (10 steps, 20 μM-6 nM) and added to each well of 96 well plates at 50 μL/well. […] Cell viability (%)=[(T7−C0)/(C7−C0)]×100
A general note: ATP-based viability assays read luminescence as a measure of living cells.

For a further test, the system named is ZR-75-1 cells. The test is described as follows: Test Example 6: Cell growth suppression activity 3 (ZR-75-1). The class given is cell-based. The conditions noted are these: 144 h; ZR-75-1 cells derived from human breast cancer, 6 days of culture, ATP measurement (CellTiter-Glo 2.0). The protocol: ZR-75-1 cells derived from human breast cancer were used. […] ZR-75-1 cells were purchased from ATCC. ZR-75-1 cells were seeded into 96 well plates at 5,000 cells/50 μL/well (day −1). The compound of Example 42 was serially diluted and prepared (10 steps, 20 μM-6 nM) and added to each well of 96 well plates at 50 μL/well. […] Cell viability (%)=[(T6−C0)/(C6−C0)]×100

Another test relates to Jeko-1 cells. The test is described as follows: Test Example 7: Cell growth suppression activity 4 (Jeko-1). The conditions noted are these: 72 h; Jeko-1 cells derived from human mantle cell lymphoma, 3 days of culture, ATP measurement (CellTiter-Glo 2.0). The class given is cell-based. As for the experimental part: Jeko-1 cells derived from human mantle cell lymphoma were used. […] Jeko-1 cells were purchased from ATCC. Jeko-1 cells were seeded into 96 well plates at 50,000 cells/50 μL/well (day 0). The compound of Example 42 was serially diluted and prepared (10 steps, 30 μM-3 nM) and added to each well of 96 well plates at 50 μL/well. […] Cell viability (%)=[(T3−C0)/(C3−C0)]×100

Test [3] concerns PTDSS2-KO A375 cell-subcutaneous transplanted model. The test is described as follows: Test Example 8: Antitumor activity on PTDSS2-KO A375 cell-subcutaneous transplanted model. It counts as in vivo, female BALB/c-nu/nu mice. The conditions noted are these: orally, once daily for 10 successive days (QD×10), test end date. From the text: PTDSS2-KO A375 cells were transplanted to a right subcutaneous axillary portion of female BALB/c-nu/nu mice at a proportion of 1×10^6 cells/head, and when the tumor volume reached 100 to 300 mm^3 (estimated tumor volume (major axis×minor axis×minor axis/2)), mice were divided into groups of 6 each such that there was no difference between groups. The female BALB/c-nu/nu mice were purchased from CHARLES RIVER LABORATORIES JAPAN, INC. The compound of Example 42 was orally administered from the day of grouping, once daily for 10 successive days (QD×10). The tumor volume was measured until the next day of completion of the administration (test end date). 0.5% methylcellulose (MC) was administered to the vehicle control group as the vehicle.
The antitumor activity on PTDSS2-KO A375 cell-subcutaneous transplanted model of Test Example 8 was calculated by the following formula on each test end date. TGI %=(1−TVt/TVc)×100 • TGI: Tumor growth suppression rate • TVt: Group mean tumor volume of compound administration group on test end date • TVc: Group mean tumor volume of vehicle control group on test end date

Setting [4] is: 10 mg/kg, QD × 13, test end date.
Where [5] appears, read: 20 mg/kg, QD × 13, test end date.
The mark [6] stands for this setting: 40 mg/kg, QD × 13, test end date.
Setting [7] is: 50 mg/kg, BID × 11, test end date.
[8] abbreviates: 100 mg/kg, BID × 11, test end date.

As usually defined, the GI50 is the concentration at which growth is held to half of that of the control. In general, IC50 refers to the concentration at which inhibition is half-maximal.

For `O=C1c2[nH]nc(-c3cccc4[nH]c(=O)oc34)c2C(c2ccc(F)cc2)N1CC(F)(F)F` (single isomer, unassigned) [Example 8, 7-[4-(4-Fluorophenyl)-6-oxo-5-(2,2,2-trifluoroethyl)-1,4,5,6-tetrahydropyrrolo[3,4-c]pyrazol-3-yl]-1,3-benzoxazol-2(3H)-one (enantiomer)], the 50% growth inhibitory concentration (GI50) with HCT116 cells was above 25000 nM; in test [1], 1100 nM.

In turn, `CC(F)(F)CN1C(=O)c2[nH]nc(-c3cccc4[nH]c(=O)oc34)c2C1c1ccc(Oc2cc(C(F)(F)F)cc(C(F)(F)F)c2)cc1` (single isomer, unassigned; (+)) [(+)-7-[4-{4-[3,5-bis(trifluoromethyl)phenoxy]phenyl}-5-(2,2-difluoropropyl)-6-oxo-1,4,5,6-tetrahydropyrrolo[3,4-c]pyrazol-3-yl]-1,3-benzoxazol-2(3H)-one] had a half-inhibitory concentration (IC50) against PSS1 above 5000 nM.

As to `CC(F)(F)CN1C(=O)c2[nH]nc(-c3cccc4[nH]c(=O)oc34)c2C1c1ccc(Oc2ccc(OC(F)(F)F)c(C(F)(F)F)c2)cc1` (single isomer, unassigned; (-)) [Example 33, (−)-7-[5-(2,2-difluoropropyl)-6-oxo-4-{4-[4-(trifluoromethoxy)-3-(trifluoromethyl)phenoxy]phenyl}-1,4,5,6-tetrahydropyrrolo[3,4-c]pyrazol-3-yl]-1,3-benzoxazol-2(3H)-one], the “TGI (%)” value in test [2] (setting [4]) is listed as 97%; in test [2] (setting [5]), 98%; in test [2] (setting [6]), 98%. The GI50 in test [1] worked out at 14 nM.

Turning to `CC(F)(F)CN1C(=O)c2[nH]nc(-c3cccc4[nH]c(=O)oc34)c2C1c1cccc(Oc2ccc(F)cc2)c1` (single isomer, unassigned; (-)) [Example 53, (−)-7-{5-(2,2-Difluoropropyl)-4-[3-(4-fluorophenoxy)phenyl]-6-oxo-1,4,5,6-tetrahydropyrrolo[3,4-c]pyrazol-3-yl}-1,3-benzoxazol-2(3H)-one], the “TGI (%)” value in test [2] (setting [7]) is recorded as 41%; in test [2] (setting [8]), 83%.

With `CC(F)(F)CN1C(=O)c2[nH]nc(-c3cccc4[nH]c(=O)oc34)c2C1c1ccc(Oc2ccc(Cl)cc2)cc1` (single isomer, unassigned; (-)) [Example 57, (−)-7-{4-[4-(4-Chlorophenoxy)phenyl]-5-(2,2-difluoropropyl)-6-oxo-1,4,5,6-tetrahydropyrrolo[3,4-c]pyrazol-3-yl}-1,3-benzoxazol-2(3H)-one], the “TGI (%)” value in test [2] (setting [7]) worked out at 89%; in test [2] (setting [8]) it was 97%.

Turning to `CC(F)(F)CN1C(=O)c2[nH]nc(-c3cccc4[nH]c(=O)oc34)c2C1c1ccc(Oc2ccc(Cl)cc2)cc1F` (single isomer, unassigned; (-)) [Example 58, (−)-7-{4-[4-(4-Chlorophenoxy)-2-fluorophenyl]-5-(2,2-difluoropropyl)-6-oxo-1,4,5,6-tetrahydropyrrolo[3,4-c]pyrazol-3-yl}-1,3-benzoxazol-2(3H)-one], in test [2] (200 mg/kg, BID × 11, test end date), the “TGI (%)” value was 87%.

Regarding `O=C1c2[nH]nc(-c3cccc4[nH]c(=O)oc34)c2C(c2cc(OC3CCOCC3)ccc2F)N1CC(F)(F)F` (stereo not drawn) [Example 9, 7-[4-{2-Fluoro-5-[(oxan-4-yl)oxy]phenyl}-6-oxo-5-(2,2,2-trifluoroethyl)-1,4,5,6-tetrahydropyrrolo[3,4-c]pyrazol-3-yl]-1,3-benzoxazol-2(3H)-one], the GI50 with HCT116 cells was above 25000 nM; in test [1], 700 nM.

For `O=C1c2[nH]nc(-c3cccc4[nH]c(=O)oc34)c2C(c2cc(Oc3ccccc3)ccc2F)N1Cc1ccccn1` (stereo not drawn) [Example 13, 7-{4-(2-Fluoro-5-phenoxyphenyl)-6-oxo-5-[(pyridin-2-yl)methyl]-1,4,5,6-tetrahydropyrrolo[3,4-c]pyrazol-3-yl}-1,3-benzoxazol-2(3H)-one], the 50% growth inhibitory concentration (GI50) was above 25000 nM in the test on HCT116 cells and 820 nM in test [1].

`CC(F)(F)CN1C(=O)c2[nH]nc(-c3cccc4[nH]c(=O)oc34)c2[C@@H]1c1ccc(Oc2cc(C(F)(F)F)cc(C(F)(F)F)c2)cc1` [Example 42, (−)-7-[4-{4-[3,5-bis(trifluoromethyl)phenoxy]phenyl}-5-(2,2-difluoropropyl)-6-oxo-1,4,5,6-tetrahydropyrrolo[3,4-c]pyrazol-3-yl]-1,3-benzoxazol-2(3H)-one]: the “TGI (%)” value in test [2] (setting [4]) was 97%; in test [2] (setting [5]), 98%; in test [2] (setting [6]), 99%; in test [3] (Dose 3 mg/kg), 47%; in test [3] (Dose 10 mg/kg), 100%; in test [3] (Dose 30 mg/kg) it was 100%. Also, the “TGI (%)” value in test [3] (Dose 100 mg/kg) came out at 100%. Also, the GI50 is 7.4 nM in the test on NCI-N87 cells; 2900 nM in the test with ZR-75-1 cells; 417 nM in the test with Jeko-1 cells; above 25000 nM with HCT116 cells; 14 nM in test [1]. In addition, the IC50 against PSS1 was 200 nM.

Turning to `CC(F)(F)CN1C(=O)c2[nH]nc(-c3cccc4[nH]c(=O)oc34)c2C1c1ccnc(Oc2ccc(F)cc2)n1` (stereo not drawn) [Example 73, 7-{5-(2,2-Difluoropropyl)-4-[2-(4-fluorophenoxy)pyrimidine-4-yl]-6-oxo-1,4,5,6-tetrahydropyrrolo[3,4-c]pyrazol-3-yl}-1,3-benzoxazol-2(3H)-one], the results for the GI50 (in the test with HCT116 cells; in test [1]) were 19000 nM and 890 nM, respectively.

Regarding `CC(F)(F)CN1C(=O)c2[nH]nc(-c3cccc4[nH]c(=O)sc34)c2C1c1ccc(Oc2ccc(OC(F)(F)F)cc2)cc1` (stereo not drawn) [Example 95, 7-[5-(2,2-Difluoropropyl)-6-oxo-4-{4-[4-(trifluoromethoxy)phenoxy]phenyl}-1,4,5,6-tetrahydropyrrolo[3,4-c]pyrazol-3-yl]-1,3-benzothiazol-2(3H)-one], the GI50 turned out to be 7300 nM in the test on HCT116 cells and 6400 nM in test [1].

The values above are taken from patent US12240855B2, “Pyrrolopyrazole derivative” (DAIICHI SANKYO COMPANY, LIMITED, priority 2019, dated 2025).
